According to US11123398B2, “Chemotherapeutic combinations of cationic antimicrobial peptides and chemotherapeutics” (LYTIX BIOPHARMA AS, priority 2014, dated 2021):
Non-standard residues stand in square brackets, D forms with d. Residues, ends and D or L forms follow the SMILES beside them. Dip = N[C@H](C(=O)O)C(c1ccccc1)c1ccccc1

Legend:
[1] = system: panel of 37 human cancer cell lines; assay type: cell-based
Method: The adherent cell lines were washed once with 200 μl FBS-free culture medium before treatment. […] compounds in ¼ dilution step with a top dose of 400 μM (range 4×10^−4 to 4×10^−10 M), with 1% (final concentration) Triton X-100 as positive control and FBS-free culture medium as negative control. The cells (190 μl) were incubated in a 200 μl final volume of FBS-free culture medium containing test substances at 37° C. under 5% CO2.
(§1) Three independent experiments were performed, each concentration being tested in quadruplicate. Control cells were treated with vehicle alone. At the end of treatments, the cytotoxic activity was evaluated by a MTS assay (see § 3.3.).
(§2) Like MTT, MTS is bioreduced by cells into a formazan product that is directly soluble in culture medium without processing, unlike MTT.
(§3) At the end of the cells treatment, 40 μl of a 0.22 μm filtered freshly combined solution of MTS (20 ml at 2 mg/ml, Ref G1111, Batch 235897, Exp March 2009, Promega, Charbonnières, France) and PMS (1 ml at 0.92 mg/ml, Ref P9625, Batch 065K0961, Sigma) in Dulbecco's Phosphate Buffered Saline (DPBS, Ref 17-513Q, Batch 6MB0152, Cambrex), were added in each well. Culture plates were incubated for 2 h at 37° C. Absorbency (OD) were measured at 490 nm in each well using VICTOR^3™ 1420 multilabeled counter (Wallac, PerkinElmer, Courtaboeuf, France).
(§4) IC50: drug concentration to obtain a 50% inhibition of cell proliferation.
(§5) The dose-response curves were plotted using XLFit 3 (IDBS, United Kingdom). The IC50 determination values were calculated using the XLFit 3 software from semi-log curves. Individual IC50 determination values as well as mean and SD values were generated.

MCF-7/mdr = test: MTS cytotoxicity assay, MCF-7/mdr; assay type: cell-based, human; details: IC50 resistant / IC50 sensitive line; doxorubicin resistance
Method: (§6) Tumor cells were plated in 96-well flat-bottom microtitration plates (Nunc, Dutscher, Brumath, France) and incubated at 37° C. for 24 hours before treatment in 190 μl of drug-free culture medium supplemented or not with 10% FBS for adherent or suspension growing cell lines, respectively.
(§7) The adherent cell lines were washed once with 200 μl FBS-free culture medium before treatment. Tumor cells were incubated for 4 hours with 10 concentrations of compounds in ¼ dilution step with a top dose of 400 μM (range 4×10^−4 to 4×10^−10 M), with 1% (final concentration) Triton X-100 as positive control and FBS-free culture medium as negative control. The cells (190 μl) were incubated in a 200 μl final volume of FBS-free culture medium containing test substances at 37° C. under 5% CO2.
as §1, §2, §3, §4, §5
(§8) Resistance index was calculated using the following formula: […]
(§9) Resistance index was calculated for each compound for each couple of sensitive and resistant cell lines. Individual resistance index was calculated when IC50 values of both sensitive and corresponding resistant cell lines were determined within same experiment. In addition, resistance index was also calculated ratio of mean IC50 values obtained during three independent experiments.

IGROV-1/CDDP = test: MTS cytotoxicity assay, IGROV-1/CDDP; assay type: cell-based, human; details: IC50 resistant / IC50 sensitive line; cisplatin resistance
Method: as §6, §7, §1, §2, §3, §4, §5, §8, §9

[2] = system: murine CT26WT colon carcinoma; test: Murine CT26WT colon carcinoma tumours in mice, treatment regimes; assay type: in vivo; details: for Mean tumour size at day 1: prior to start of treatment
Method: The administration takes place by intra-tumoural injection of LTX-315 dissolved in sterile saline (0.9% NaCl in sterile water).
The mice were divided into five groups, 8 mice in each group. When the tumours reached the desired size of 20 mm^2 the treatment by intra tumoural injection was initiated. Group one was treated solely on day 1, Group two on day 1 and 2, Group three on day 1 and 3 and Group four on day 1, 2 and 3. All daily treatments were one single injection of 1.0 mg LTX-315 dissolved in 50 μl (20 mg/ml). Group five was treated with the 50 μl of vehicle for LTX-315 (Group 5).
Weighing and physical examination were used as health controls.

A375 cells = test: Fluorescence measurement of reactive oxygen species (ROS); assay type: cell-based, human; details: 15 minutes of incubation; concentration-dependent
Method: A DCFDA cellular reactive oxygen species detection assay kit was purchased from Abcam®, and A375 cells seeded in a 96-well Costar black clear bottom plate with 20,000 cells per well incubated in 37° C. 16 hours prior to DCFDA assay. Cells were washed with a 100 μL/well of pre-warmed PBS one time, and incubated with 20 μM of DCFDA in a buffer solution supplied with the kit at 37° C. in a cell culture incubator for 45 min, and then washed again with a buffer solution of 100 μL/well. […] The fluorescence intensity was determined at an excitation wavelength of 485 nm and an emission wavelength of 530 nm on a FLUOstar Galaxy plate reader.

[3] = Exposure time for cell killing (background statement); assay type: cell-based
[4] = Group 1: 1 mg intratumoural on day 1
[5] = Group 2: 1 mg intratumoural on days 1, 2
[6] = Group 3: 1 mg intratumoural on days 1, 3
[7] = Group 4: 1 mg days 1, 2, 3, n=8
[8] = Group 4: 1 mg intratumoural on days 1, 2, 3
[9] = of the 32 treated animals, all four regimes

NCCCC[C@H](NC(=O)[C@@H](NC(=O)[C@H](Cc1c[nH]c2ccccc12)NC(=O)[C@H](CCCCN)NC(=O)[C@H](CCCCN)NC(=O)[C@H](Cc1c[nH]c2ccccc12)NC(=O)[C@H](Cc1c[nH]c2ccccc12)NC(=O)[C@H](CCCCN)NC(=O)[C@@H](N)CCCCN)C(c1ccccc1)c1ccccc1)C(N)=O [LTX-315, K-K-W-W-K-K-W-Dip-K-NH2] (H-KKWWKKW[Dip]K-NH2)
Potency rank among the five compounds tested, 37 cell line panel [1]: most potent compound from the five compounds tested | IC50 ([1]; 4 h): 3.63 ± 1.45 µM | IC50 range against 37 human cancer cell lines ([1]; conclusion): micromolar to ten micromolar range | Resistance index (RI), MCF-7/mdr (MCF-7/mdr): 1.12 | Resistance index (RI), IGROV-1/CDDP (IGROV-1/CDDP): 0.50 | Animals showing complete tumour response ([2]; Group 1: 1 mg day 1): four out of eight | Free of Tumour at end of Follow-Up ([2]; Group 1: 1 mg day 1, n=8): 50% (4/8) | Relapse of Tumour ([2]; Group 1: 1 mg day 1, n=8): 20% (1/5) | Tumour Response: complete response ([2]; Group 1: 1 mg day 1, n=8): 62.5% | Tumour Response: no response ([2]; Group 1: 1 mg day 1, n=8): 0% | Tumour Response: partial response ([2]; Group 1: 1 mg day 1, n=8): 27.5% | Mean tumour size on day 6 [2, 4]: 4.343 ± 2.295 mm^2 | Mean tumour size on day 10 [2, 4]: 7.171 ± 4.035 mm^2 | Mean tumour size on day 17 [2, 4]: 3.712 ± 3.712 mm^2 | Mean tumour size at day 1 [2, 4]: 22.69 ± 0.4070 mm^2 | Animals showing complete tumour response ([2]; Group 2: 1 mg days 1, 2): two out of eight | Free of Tumour at end of Follow-Up ([2]; Group 2: 1 mg days 1, 2, n=8): 25% (2/8) | Relapse of Tumour ([2]; Group 2: 1 mg days 1, 2, n=8): 71% (5/7) | Tumour Response: complete response ([2]; Group 2: 1 mg days 1, 2, n=8): 87.5% | Tumour Response: no response ([2]; Group 2: 1 mg days 1, 2, n=8): 0% | Tumour Response: partial response ([2]; Group 2: 1 mg days 1, 2, n=8): 12.5% | Mean tumour size on day 6 [2, 5]: 1.458 ± 1.458 mm^2 | Mean tumour size on day 10 [2, 5]: 5.058 ± 4.014 mm^2 | Mean tumour size on day 17 [2, 5]: 6.644 ± 3.430 mm^2 | Mean tumour size at day 1 [2, 5]: 22.90 ± 1.155 mm^2 | Animals showing complete tumour response ([2]; Group 3: 1 mg days 1, 3): five out of eight | Free of Tumour at end of Follow-Up ([2]; Group 3: 1 mg days 1, 3, n=8): 62.5% (5/8) | Relapse of Tumour ([2]; Group 3: 1 mg days 1, 3, n=8): 29% (2/7) | Tumour Response: complete response ([2]; Group 3: 1 mg days 1, 3, n=8): 87.5% | Tumour Response: no response ([2]; Group 3: 1 mg days 1, 3, n=8): 12.5% | Tumour Response: partial response ([2]; Group 3: 1 mg days 1, 3, n=8): 0% | Mean tumour size on day 6 [2, 6]: 2.983 ± 2.983 mm^2 | Mean tumour size on day 10 [2, 6]: 10.85 ± 7.553 mm^2 | Mean tumour size on day 17 [2, 6]: 0.00 ± 0.00 mm^2 | Mean tumour size at day 1 [2, 6]: 21.43 ± 1.141 mm^2 | Animals showing complete tumour response ([2]; Group 4: 1 mg days 1, 2, 3): five out of eight | Free of Tumour at end of Follow-Up [2, 7]: 62.5% (5/8) | Relapse of Tumour [2, 7]: 37.5% | Tumour Response: complete response [2, 7]: 100% (8/8) | Tumour Response: no response [2, 7]: 0% | Tumour Response: partial response [2, 7]: 0% | Mean tumour size on day 6 [2, 8]: 0.00 ± 0.00 mm^2 | Mean tumour size on day 10 [2, 8]: 0.00 ± 0.00 mm^2 | Mean tumour size on day 17 [2, 8]: 1.308 ± 1.308 mm^2 | Mean tumour size at day 1 [2, 8]: 24.09 ± 1.653 mm^2 | Anti-tumour effect ([2]; all four treatment regimes): strong anti tumour effect | Toxic or other adverse effects ([2]; all treated groups, intratumoural 1 mg): No toxic or other adverse effects besides local necrotic tissue and wound formation were observed | Animals without response to the treatment ([2]; of the 32 treated animals (in Group 3)): one | Animals with a complete tumour response [2, 9]: 27 | Animals with a partial response [2, 9]: four | ROS generation (A375 cells): Significant amounts of ROS were generated | Exposure time causing cell death [3]: 30 min
